Bounds are passed on as bounds.

This assay concerns the target T1, human MPO (Homo sapiens, UniProt P05164).
T1 sequence (P05164 49-745): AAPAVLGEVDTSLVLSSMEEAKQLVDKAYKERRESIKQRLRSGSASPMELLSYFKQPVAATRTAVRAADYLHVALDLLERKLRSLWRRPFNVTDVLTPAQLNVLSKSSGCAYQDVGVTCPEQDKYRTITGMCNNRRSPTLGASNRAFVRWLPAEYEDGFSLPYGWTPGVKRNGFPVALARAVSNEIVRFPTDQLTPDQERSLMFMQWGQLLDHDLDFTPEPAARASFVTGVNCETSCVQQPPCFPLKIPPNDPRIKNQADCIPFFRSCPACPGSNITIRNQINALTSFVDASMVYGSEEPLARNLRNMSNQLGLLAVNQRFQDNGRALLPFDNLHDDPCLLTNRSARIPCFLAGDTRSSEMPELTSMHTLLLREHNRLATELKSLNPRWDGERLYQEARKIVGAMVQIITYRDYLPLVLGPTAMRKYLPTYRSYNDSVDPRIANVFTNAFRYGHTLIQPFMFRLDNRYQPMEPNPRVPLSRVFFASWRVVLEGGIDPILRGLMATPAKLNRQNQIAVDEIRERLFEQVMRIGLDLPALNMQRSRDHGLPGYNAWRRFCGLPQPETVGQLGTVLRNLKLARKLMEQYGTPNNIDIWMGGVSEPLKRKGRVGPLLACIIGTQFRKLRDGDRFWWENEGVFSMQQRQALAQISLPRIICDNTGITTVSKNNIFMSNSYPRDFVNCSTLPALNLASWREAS
Put plainly: MPO inhibition screen (TMB oxidation, absorbance). Format: biochemical. To be noted: at least one version of the screen (compound alone or with added tyrosine, 8 μM final); human MPO 2.5 nM, H2O2 100 μM, pH 6.5. The method, then:
Methods for the determination of MPO inhibitory activity are disclosed in patent application WO 02/090575. The pharmacological activity of compounds according to the invention was tested in the following screen in which the compound was either tested alone or in the presence of added tyrosine:
Assay buffer: 20 mM sodium/potassium phosphate buffer pH 6.5 containing 10 mM taurine and 100 mM NaCl.
Developing reagent: 2 mM 3,3′,5,5′-tetramethylbenzidine (TMB), 200 μM KI, 200 mM acetate buffer pH 5.4 with 20% DMF.
To 10 μl of diluted compounds in assay buffer, 40 μL of human MPO (final concentration 2.5 nM), with or without 20 μM tyrosine (final concentration, if present, 8 μM), was added and the mixture was incubated for 10 minutes at ambient temperature. Then 50 μl of H2O2 (final concentration 100 μM), or assay buffer alone as a control, were added. After incubation for 10 minutes at ambient temperature, the reaction was stopped by adding 10 μl 0.2 mg/ml of catalase (final concentration 18 μg/ml). The reaction mixture was left for an additional 5 minutes before 100 μl of TMB developing reagent was added. The amount of oxidised 3,3′,5,5′-tetramethylbenzidine formed was then measured after about 5 minutes using absorbance spectroscopy at about […]. IC50 values were then determined using standard procedures.

As a reminder, the IC50 is the midpoint of a concentration-inhibition curve. High values mean a need for much substance, low ones inhibition by little substance. Consider `O=c1[nH]c(=S)n(CCO)c2cc[nH]c12` [Example 1, 1-(2-Hydroxyethyl)-2-thioxo-1,2,3,5-tetrahydro-4H-pyrrolo[3,2-d]pyrimidin-4-one], for which the IC50 was < 5 µM.

Values taken from patent publication US20090124640A1, “Pyrrolo[3,2-D]Pyrimidin-4-One Derivative as Myeloperoxidase Inhibitor” (ASTRAZENECA AB, priority 2006, published 2009).
